We go through eleven compounds from patent publication US7759486B2, “2,4,5-Trisubstituted pyrimidine compounds” (GlaxoSmithKline LLC, priority 2000, dated 2010).

By IC50 is commonly meant the concentration that gives 50% inhibition. Usually melting point stands for the temperature, or range, at which the solid turns liquid.

In one series the target is T1, CSBP/p38 (Homo sapiens, UniProt Q16539).
T1 construct: made in house; host or cells: yeast
T1 sequence (Q16539 whole entry): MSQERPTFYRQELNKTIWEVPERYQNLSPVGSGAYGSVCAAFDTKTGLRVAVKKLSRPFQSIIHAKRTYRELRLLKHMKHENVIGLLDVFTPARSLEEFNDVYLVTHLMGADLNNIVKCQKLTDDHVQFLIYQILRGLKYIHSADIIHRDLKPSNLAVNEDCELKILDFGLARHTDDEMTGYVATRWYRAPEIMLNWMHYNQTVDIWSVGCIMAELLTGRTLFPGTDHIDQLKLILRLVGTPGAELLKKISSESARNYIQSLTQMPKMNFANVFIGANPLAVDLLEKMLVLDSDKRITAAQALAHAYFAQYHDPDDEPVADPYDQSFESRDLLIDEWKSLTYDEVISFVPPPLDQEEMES
The experiment in a line: CSBP/p38 Kinase Assay (32P transfer from ATP to EGFR-derived T669 peptide). The format is biochemical. Conditions: yeast-expressed, activated and purified p38, 0.17 mM ATP, 25 min at 37° C., read-out: IC50, positive inhibitory activity in this binding assay. As for the experimental part:
Assay: Test compound concentrations were prepared at 10× concentrations and LPS prepared at […] (final conc. of 50 ng/ml LPS) and added in 50 uL volumes to 1.5 mL eppendorf tubes. Heparinized human whole blood was obtained from healthy volunteers and was dispensed into eppendorf tubes containing compounds and LPS in 0.4 mL volumes and the tubes incubated at 37 C. Following a 4 hour incubation, the tubes were centrifuged at 5000 rpm for 5 minutes in a TOMY microfuge, plasma was withdrawn and frozen at −80 C. Cytokine measurement: IL-1 and/or TNF were quantified using a standardized ELISA technology. An in-house ELISA kit was used to detect human IL-1 and TNF. Concentrations of IL-1 or TNF were determined from standard curves of the appropriate cytokine and IC50 values for test compound (concentration that inhibited 50% of LPS-stimulated cytokine production) were calculated by linear regression analysis. CSBP/p38 Kinase Assay:
This assay measures the CSBP/p38-catalyzed transfer of ^32P from […] to threonine residue in an epidermal growth factor receptor (EGFR)-derived peptide (T669) with the following sequence: […] (SEQ ID No. 1) (residues 661-681). […]
Reactions were carried in round bottom 96 well plate (from Corning) in a 30 ml volume. […] Filters were washed with 75 mM phosphoric acids, and incorporated 32P was quantified using beta scintillation counter. […]
For the compound `CSc1nc(Oc2ccccc2)c2ccc(=O)n(-c3ccccc3Cl)c2n1` [Example 111, 8-(2-Chloro-phenyl)-2-methylsulfanyl-4-phenoxy-8H-pyrido[2,3-d]pyrimidin-7-one], the half-inhibitory concentration (IC50) is < 10 µM.

Tested on in another series: not given
Assay: not given
Details: not given
Take `Cc1cc(F)ccc1-c1nc(NCCNC(=O)Nc2cccc(F)c2)nc2c1ccc(=O)n2-c1c(F)cccc1F` [Example 161, 1-[2-[8-(2,6-Difluorophenyl)-4-(4-fluoro-2-methylphenyl)-7-oxo-7,8-dihydro-pyrido[2,3-d]pyrimidin-2-ylamino]ethyl]-3-[3-fluorophenyl]urea]: the melting point lay within 131 to 144 °C. Same read-out and setting: to `Cc1cc(F)ccc1-c1nc(NCCNC(=O)c2ccccc2)nc2c1ccc(=O)n2-c1c(F)cccc1F` [Example 163, 8-(2,6-Difluorophenyl)-4-(4-fluoro-2-methylphenyl)-2-[N-(2-aminoethyl)-3-benzamido]-8H-pyrido[2,3-d]pyrimidin-7-one] belongs 246 to 248 °C; to `CCC(=O)NCCNc1nc(-c2ccc(F)cc2C)c2ccc(=O)n(-c3c(F)cccc3F)c2n1` [Example 165], 214 to 216 °C.

Turning to `Cc1cc(F)ccc1-c1nc(NCCNC(=O)C(C)(C)C)nc2c1ccc(=O)n2-c1c(F)cccc1F` [Example 166], the melting point fell in the range of 111 to 133 °C.

`Cc1cc(F)ccc1-c1nc(NCCNC(=O)OC(C)(C)C)nc2c1ccc(=O)n2-c1c(F)cccc1F` [Example 167] gave a melting point of 106 to 119 °C.

`Cc1cc(F)ccc1-c1nc(Nc2c[nH]c(=O)[nH]c2=O)nc2c1ccc(=O)n2-c1c(F)cccc1F` [Example 168, 8-(2,6-Difluorophenyl)-4-(4-fluoro-2-methylphenyl)-2-(N-aminouracil-5-yl)-8H-pyrido[2,3-d]pyrimidin-7-one]: the melting point was > 300 °C. With `Cc1cc(F)ccc1-c1nc(NCCNS(C)(=O)=O)nc2c1ccc(=O)n2-c1c(F)cccc1F` [Example 189, N-[2-[[8-(2,6-Difluorophenyl)-4-(4-fluoro-2-methylphenyl)-7,8-d hydro-7-oxopyrido[2,3-d]pyrimidin-2-yl]amino]ethyl]methanesulfonamide], the melting point is 105 to 115 °C (dec.). The compound `COC(=O)CNc1nc(-c2ccc(F)cc2C)c2ccc(=O)n(-c3c(F)cccc3F)c2n1` [Example 190, Methyl N-[8-(2,6-difluorophenyl)-4-(4-fluoro-2-methylphenyl)-7,8-dihydro-7-oxopyrido[2,3-d]pyrimidin-2-yl] glycinate] yielded a melting point of 212 to 213 °C. `Cc1cc(F)ccc1-c1nc(NCC(=O)O)nc2c1ccc(=O)n2-c1c(F)cccc1F` [Example 191, N-[8-(2,6-Difluorophenyl)-4-(4-fluoro-2-methylphenyl)-7,8-dihydro-7-oxopyrido[2,3-d]pyrimidin-2-yl]glycine]: the melting point lay in the range of 260 to 261 °C. Turning to `CCNC(=O)CNc1nc(-c2ccc(F)cc2C)c2ccc(=O)n(-c3c(F)cccc3F)c2n1` [Example 192], the melting point is 250 to 253 °C (dec.).
